The target in one assay is h-EP2 (Homo sapiens, UniProt P43116). In words: Prostaglandin EP2 receptor binding assay (3H-PGE2 SPA). The settings on record: EP2 receptor membranes, 20 nM 3H-PGE2, pH 6.0. The procedure: Compounds of the invention were tested in an EP2 receptor binding assay of the following protocol. As referred to herein, the term an “EP2 receptor binding assay” designates the following protocol.

The next assay concerns the target h-EP4 (Homo sapiens, UniProt P35408). In words: EP4 receptor binding assay (3H-PGE2 SPA). The settings on record: EP4 receptor membranes, 20 nM 3H-PGE2, pH 6.0. The procedure:
Compounds of the invention were tested in an EP4 receptor binding assay of the following protocol.

The target of the next assay is T1, hEP2 receptors (Homo sapiens, UniProt P43116).
T1 construct: expressed in transfected cells; host or cells: HEK293-EBNA
T1 sequence (P43116 whole entry): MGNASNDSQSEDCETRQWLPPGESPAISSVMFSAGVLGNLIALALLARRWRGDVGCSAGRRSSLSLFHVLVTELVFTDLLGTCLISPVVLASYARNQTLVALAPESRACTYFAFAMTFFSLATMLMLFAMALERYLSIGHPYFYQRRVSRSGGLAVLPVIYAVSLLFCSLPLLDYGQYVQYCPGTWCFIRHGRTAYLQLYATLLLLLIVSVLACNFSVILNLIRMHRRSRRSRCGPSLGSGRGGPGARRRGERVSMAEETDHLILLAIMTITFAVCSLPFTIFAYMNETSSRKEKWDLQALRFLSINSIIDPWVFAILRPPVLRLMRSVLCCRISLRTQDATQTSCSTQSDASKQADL
Put plainly: EP2 cAMP assay, HEK293-EBNA cells transfected with pCEP4-hEP2 receptors. It is filed as cell-based. The conditions noted are these: total cAMP, 1 hour. The procedure:
Compounds of the invention were tested in a total cAMP assay as follows. […] After overnight incubation, the medium was removed from each well and replaced with 45 μl of assay medium consisted of phenol red free D-MEM/F-12, 0.1% BSA (GibcoBRL) and 0.1 mM 3-isobutyl-1-methyl-xanthine (Sigma). […] Total cAMP (intra- and extra-cellular) was measured by using a cAMP-screen ELISA System (Tropix, #CS1000).
On the technique in general: cAMP levels reflect the balance of adenylyl cyclase and phosphodiesterase activity.

In another assay the target is T2, hEP4 receptors (Homo sapiens, UniProt P35408).
T2 construct: expressed in transfected cells; host or cells: HEK293-EBNA
T2 sequence (P35408 whole entry): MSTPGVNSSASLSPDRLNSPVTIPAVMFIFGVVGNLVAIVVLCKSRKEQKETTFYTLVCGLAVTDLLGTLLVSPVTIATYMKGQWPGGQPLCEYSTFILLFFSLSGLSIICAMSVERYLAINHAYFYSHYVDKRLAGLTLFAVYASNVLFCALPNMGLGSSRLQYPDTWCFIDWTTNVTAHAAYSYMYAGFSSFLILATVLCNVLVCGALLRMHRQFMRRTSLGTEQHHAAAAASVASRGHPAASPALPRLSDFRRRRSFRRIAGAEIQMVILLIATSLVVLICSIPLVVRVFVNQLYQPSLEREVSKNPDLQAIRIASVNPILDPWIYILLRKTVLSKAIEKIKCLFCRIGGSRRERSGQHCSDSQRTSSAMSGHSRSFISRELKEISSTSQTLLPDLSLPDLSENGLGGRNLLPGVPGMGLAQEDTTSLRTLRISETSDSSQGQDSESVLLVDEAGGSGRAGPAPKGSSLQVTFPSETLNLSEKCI
Put plainly: EP4 cAMP assay, HEK293-EBNA cells transfected with pCEP4-hEP4 receptors. In kind it is cell-based. The conditions noted are these: total cAMP, 1 hour. As for the experimental part: Compounds of the invention were tested in a total cAMP assay as follows. HEK293-EBNA cells transfected with pCEP4-hEP4 receptors were seeded in 96 well opaque plate (Costar #3917) at 4×10^4 cells per well in 100 μl of culture medium (D-MEM/F12 supplemented with 10% FBS, […] L-glutamine, and 250 μg/ml of hygromycin; all from GibcoBRL) and incubated at 37° C. After overnight incubation, the medium was removed from each well and replaced with 45 μl of assay medium consisted of phenol red free D-MEM/F-12, 0.1% BSA (GibcoBRL) and 0.1 mM 3-isobutyl-1-methyl-xanthine (Sigma). After 15 minutes of incubation at 37° C., 16-16-dimethyl PGE-2 or compounds at desired concentrations in 20 μl of assay medium were added to cells and further incubated at 37° C. for 1 hour. Total cAMP (intra- and extra-cellular) was measured by using a cAMP-screen ELISA System (Tropix, #CS1000).

In assay [1] the test system is mature mouse ovulation induction model. Put plainly: In vivo ovulation assay (mature mouse ovulation induction model). The settings on record: Mus musculus, po, read-out: calculated ED50 (dose of drug which produces 50% of its effect), ovulation; p.o. administration route, mice. As for the experimental part:
Ovulation induction activity of compounds of the invention was tested in a mature mouse ovulation induction model.
Mature 10-week-old CD-mice were used. Reagents were prepared as follows: PMSG (pregnant mare serum gonadotropin) (Calbiochem, cat #367222) and hCG (Serono) are diluted in PBS. PGE2 (Cayman, Ann Arbor Mich.) was dissolved in ethanol and diluted with 0.154 M […] Buffer (pH 8.0) to final concentration of ethanol of less than 3 percent. A compound of the invention (based on solubility) was pre-dissolved in ethanol, DMSO or other reagents. The compound of the invention was then diluted with saline or other diluents such as PBS or NP3S (5% N-methyl-pyrrolidinone/30% PEG400/25% PEG200/20% Propylene Glycol in saline). PMSG stimulates ovarian follicular development. After PMSG stimulation, the mature follicules can be stimulated to rupture and release oocytes by an ovulation trigger, such as hCG or a compound of the invention.
The following test protocol is employed for the test animals (typically 5 animals per test group). • Day 1: Inject 5 IU PMSG in 200 μl PBS (i.p. 15:00 PM) • Day 2: No administration • Day 3: Injection of ovulation trigger hCG (i.p.) or hCG replacement (PGE2 or compound of the invention, s.c., i.v. or oral route), 15:00 PM • Day 4: Eighteen hours after injections of the ovulation triggers, animals were sacrificed by CO2 asphyxiation and abdominal cavities were opened using fine scissors and forceps. Uterus, oviducts and ovaries were collected and placed in pre-labeled dishes containing phosphate buffered saline (PBS). The collected tissues were transferred to the laboratory and intact oviduct carefully dissected out from uterus and ovary under the dissection microscope. The dissected oviducts were placed on the glass microscopic slide and covered with another slide. Two slides were taped on two edges. The numbers of ovulated ova in the oviducts were counted using upright microscope with 4× objective and recorded. […]

Sequence of h-EP2 (P43116 whole entry): as the sequence (P43116 whole entry) above
Sequence of h-EP4 (P35408 whole entry): as the sequence (P35408 whole entry) above

Usually Ki stands for a measure of affinity in units of concentration, obtained from inhibition or displacement. As for `CCCC/C=C/C=C\[C@H]1CCC(=O)N1CCCc1ccc(C(=O)O)s1` [Example 17, 5-(3-{(2R)-2-[(1Z,3E)-octa-1,3-dienyl]-5-oxopyrrolidin-1-yl}propyl)thiophene-2-carboxylic acid], the Ki turned out to be 44 nM on h-EP2 and 51 nM on h-EP4.
Taken in the same sequence, the figures for `C/C(=C\C=C\[C@H]1CCC(=O)N1CCc1ccc(C(=O)O)cc1)C(C)C` [Example 55, 4-(2-{(2R)-2-[(1E,3E)-4,5-dimethylhexa-1,3-dienyl]-5-oxopyrrolidin-1-yl}ethyl)benzoic acid] were 36 nM and 164 nM.
Regarding `C/C(=C\C=C\[C@H]1CCC(=O)N1CCc1ccc(C(=O)O)cc1)C1CC1` [Example 63, 4-(2-{(2R)-2-[(1E,3E)-4-cyclopropylpenta-1,3-dienyl]-5-oxopyrrolidin-1-yl}ethyl)benzoic acid], the results for the Ki on h-EP2 and at h-EP4 were 277 nM and 165 nM, respectively.
Consider `O=C(O)c1ccc(CCN2C(=O)CC[C@@H]2/C=C\C=C(/c2ccccc2)C(F)(F)F)cc1` [Example 58], for which the figures for the Ki at h-EP2 and at h-EP4 were 100 nM and 69 nM, respectively.
Turning to `C/C(=C\C=C/[C@H]1CCC(=O)N1CCc1ccc(C(=O)O)cc1)CC1CCCC1` [Example 30, 4-(2-{(2)-2-[(1Z,3E)-5-cyclopentyl-4-methylpenta-1,3-dienyl]-5-oxopyrrolidin-1-yl}ethyl)benzoic acid], the Ki at h-EP2 worked out at 60 nM; on h-EP4, 117 nM.
In the case of `CC(C)=CCC/C(C)=C/C=C/[C@H]1CCC(=O)N1CCc1ccc(C(=O)O)cc1` [Example 12, 4-(2-{(2R)-2-[(1E,3E)-4,8-dimethylnona-1,3,7-trienyl]-5-oxopyrrolidin-1-yl}ethyl)benzoic acid], the Ki was 750 nM on h-EP2 and 470 nM on h-EP4.
Taken in the same sequence, the figures for `CCCC/C(C)=C/C=C\[C@H]1CCC(=O)N1CCCc1ccc(C(=O)O)s1` (single isomer, unassigned) [Example 13] were 60 nM and 6 nM.
What is called EC50 is the concentration needed to bring the measured effect to its halfway point. A high value points to weaker potency. `CC(C)=CCC/C(C)=C/C=C\[C@H]1CCC(=O)N1CCc1ccc(C(=O)O)cc1` [Example 11, 4-(2-{(2R)-2-[(1Z,3E)-4,8-dimethylnona-1,3,7-trienyl]-5-oxopyrrolidin-1-yl}ethyl)benzoic acid]: the Ki at h-EP2 was 410 nM; at h-EP4, 45 nM. Moreover, the values for the EC50 at hEP2 receptors and on hEP4 receptors were 1050 nM and 2 nM, respectively.
Taken in the same sequence, the figures for `CCCC/C=C/C=C\[C@H]1CCC(=O)N1CCc1ccc(C(=O)O)cc1` [Example 1, 4-(2-{(2R)-2-[(1Z,3E)-octa-1,3-dienyl]-5-oxopyrrolidin-1-yl}ethyl)benzoic acid] were 88 nM, 25 nM, 197 nM and 20 nM.
On to `C/C(=C\C=C/[C@H]1CCC(=O)N1CCc1ccc(C(=O)O)cc1)c1ccccc1` [Example 32, 4-(2-{(2R)-2-[(1Z,3E)-4-phenylpenta-1,3-dienyl]-5-oxopyrrolidin-1-yl}ethyl)benzoic acid], for which the Ki was determined as 749 nM on h-EP2 and 29 nM on h-EP4.
On to `CC/C=C/C=C\[C@H]1CCC(=O)N1CCc1ccc(C(=O)O)cc1` [Example 7, 4-(2-{(2R)-2-[(1Z,3E)-hexa-1,3-dienyl]-5-oxopyrrolidin-1-yl}ethyl)benzoic acid], for which the Ki at h-EP2 was 1530 nM; at h-EP4, 71 nM. Also, the results for the EC50 on hEP2 receptors and at hEP4 receptors were 2600 nM and 2 nM, respectively.
As usually defined, the ED50 is the dose that gives a 50% effect, or the effect in half of the subjects. In the case of `CCC/C(C)=C/C=C\[C@H]1CCC(=O)N1CCc1ccc(C(=O)O)cc1` [Example 44, 4-(2-{(2R)-2-[(1Z,3E)-4-methylhepta-1,3-dienyl]-5-oxopyrrolidin-1-yl}ethyl)benzoic acid], the Ki at h-EP2 was determined as 79 nM; at h-EP4, 6 nM. The ED50 in assay [1] was 1 mg/kg.
With `O=C(O)c1ccc(CCN2C(=O)CC[C@@H]2/C=C\C=C2CCCCC2)cc1` [Example 56], the results for the Ki on h-EP2 and on h-EP4 were 27 nM and 307 nM, respectively.
In the case of `CCCC/C(C)=C/C=C\[C@H]1CCC(=O)N1CCCc1ccc(C(=O)O)s1` (single isomer, unassigned) [Example 19], the Ki on h-EP2 is 60 nM; on h-EP4, 6 nM. Moreover, the EC50 worked out at 49 nM at hEP2 receptors and 2 nM at hEP4 receptors.

The values above are taken from patent US7276531B2, “G-lactam derivatives as prostaglandin agonists” (Applied Research Systems ARS Holding N.V., priority 2003, dated 2007).
